According to US7081457B2 (Wyeth, priority 1999, dated 2006):

Tests used:
[1] = system: alkaline phosphatase; assay: cells; conditions: read-out: EC50 (alkaline phosphatase data, printed in HPR CV-1 column)
[2] = system: ovulation; assay: Ovulation Inhibition; conditions: in vivo

melting point [°C]	Compound	EC50 [1] [pM]	Ovulation Inhibition ED100 [2] [mg/kg]
211 to 212	Cc1cc(C#N)sc1-c1ccc2c(c1)C(C)(C)OC(=S)N2 [Example 16, 5-(4,4-Dimethyl-2-thioxo-1,4-dihydro-2H-3,1-benzoxazin-6-yl)-4-methylthiophene-2-carbonitrile]	–	–
–	CC1(C)OC(=S)Nc2ccc(-c3csc(C#N)c3)cc21 [Compound 2, 4-(4,4-Dimethyl-2-thioxo-1,4-dihydro-2H1-benzo [d][1,3]oxazin-6-yl)-thiophene-2-carbonitrile]	–	1
250 to 251	CC1(C)OC(=S)Nc2ccc(-c3cc(C#N)ccc3F)cc21 [Example 47, 3-(4,4-Dimethyl-2-thioxo-1,4-dihydro-2H-3,1-benzoxazin-6-yl)-4-fluorobenzonitrile]	–	–
204 to 206	CC1(C)OC(=S)Nc2ccc(-c3cc(F)cc(C(F)(F)F)c3)cc21 [Example 43, 6-[3-Fluoro-5-(trifluoromethyl)phenyl]-4,4-dimethyl-1,4-dihydro-2H-3,1-benzoxazine-2-thione]	–	–
204 to 205	CC1(C)OC(=S)Nc2ccc(-c3cc(F)cc(Cl)c3)cc21 [Example 27, 6-(3-Chloro-5-fluorophenyl)-4,4-dimethyl-1,4-dihydro-2H-3,1-benzoxazine-2-thione]	–	–

Compound	melting point [°C]	EC50 [1] [pM]	Ovulation Inhibition ED100 [2] [mg/kg]
CC1(C)OC(=S)Nc2ccc(-c3cccc(C#N)c3)cc21 [Compound 4, 3-(4,4-Dimethyl-2-thioxo-1,4-dihydro-2H-benzo[d][1,3]oxazin-6-yl)-benzonitrile]	236 to 237	400	–
